Here are results for one compound from US20160068843A1 (priority 2012, published 2016).

The subject of the experiment is H1N1 strain (A/California/07/09 (H1N1)pdm09). Set-up: species or system mice. To be noted: mouse, in vivo.

On to `CCOC(=O)C1=C[C@@H](OC(CC)CC)[C@H](NC(C)=O)[C@@H](N)C1` [Tamiflu], for which the “survival compared with siRNA combination” value is listed as “equivalent”.
